Assay in all cases: cells
Common to all, as to parameters: species or system NCI-60 human tumour cell lines; NCI-60 one-dose screen at 10 uM, percent growth inhibition versus untreated control cells

For one experiment, the system named is 786-0. As to conditions: Homo sapiens, 786-0; growth inhibition, one dose; read-out: Growth% inhibition / 5b.
In a further experiment the test system is SK-MEL-2. The note with it: Homo sapiens, SK-MEL-2; growth inhibition, one dose; read-out: Growth% inhibition / 5b.
The subject of another experiment is LOX IMVI. As to conditions: Homo sapiens, LOX IMVI; growth inhibition, one dose; read-out: Growth% inhibition / 5b.
The test system of a further experiment is OVCAR-3. The note with it: Homo sapiens, OVCAR-3; growth inhibition, one dose; read-out: Growth% inhibition / 5b.
The subject of a further experiment is PC-3. The note with it: Homo sapiens, PC-3; growth inhibition, one dose; read-out: Growth% inhibition / 5b.
The next experiment deals with CCRF-CEM. As to conditions: Homo sapiens, CCRF-CEM; growth inhibition, one dose; read-out: Growth% inhibition / 5b.
Another experiment relates to U251. As to conditions: Homo sapiens, U-251; growth inhibition, one dose; read-out: Growth% inhibition / 5b.
For the next experiment, the system named is SK-MEL-28. The note with it: Homo sapiens, SK-MEL-28; growth inhibition, one dose; read-out: Growth% inhibition / 5b.
Another experiment relates to NCI-H522. As to conditions: Homo sapiens, NCI-H522; growth inhibition, one dose; read-out: Growth% inhibition / 5b.
The subject of a further experiment is HS 578 T. The note with it: Homo sapiens, Hs-578T; growth inhibition, one dose; read-out: Growth% inhibition / 5b.
The next experiment has as its system NCI-H226. As to conditions: Homo sapiens, NCI-H226; growth inhibition, one dose; read-out: Growth% inhibition / 5b.
The test system of the next experiment is IGROV1. As to conditions: Homo sapiens, IGROV-1; growth inhibition, one dose; read-out: Growth% inhibition / 5b.
Another experiment concerns OVCAR-8. As to conditions: Homo sapiens, OVCAR-8; growth inhibition, one dose; read-out: Growth% inhibition / 5b.
The test system of the next experiment is ACHN. The note with it: Homo sapiens, ACHN; growth inhibition, one dose; read-out: Growth% inhibition / 5b.
The test system of another experiment is SN12C. The note with it: Homo sapiens, SN12C; growth inhibition, one dose; read-out: Growth% inhibition / 5b.
For the next experiment, the system named is MCF7. As to conditions: Homo sapiens, MCF7; growth inhibition, one dose; read-out: Growth% inhibition / 5b.
Another experiment has as its system HCT-15. The note with it: Homo sapiens, HCT-15; growth inhibition, one dose; read-out: Growth% inhibition / 5b.
In a further experiment the test system is SNB-19. The note with it: Homo sapiens, SNB-19; growth inhibition, one dose; read-out: Growth% inhibition / 5b.

Each structure is given as a SMILES string.

Take `O=C(/C=C/C=C/c1ccc2c(c1)OCO2)N/N=C/c1ccc(O)cc1O` [5b, (2E,4E)-5-(Benzo[d][1,3]dioxol-5-yl)-N′-((E)-2,4-dihydroxybenzylidene)penta-2,4-dienehydrazide]: the inhibition at 10 µM was 71% in the experiment on 786-0; 47.2% in the experiment on SK-MEL-2; 90.3% in the experiment on LOX IMVI; 90.3% in the experiment on OVCAR-3; 62% in the experiment on PC-3; 81% in the experiment on CCRF-CEM. Moreover, the inhibition at 10 µM with U251 was 68.7%; in the experiment with SK-MEL-28 it was 57.9%; in the experiment on NCI-H522, 78.9%; in the experiment on HS 578 T it was 29.8%; with NCI-H226, 62.4%; in the experiment with IGROV1, 71.1%. Moreover, the inhibition at 10 µM amounted to 77.2% in the experiment with OVCAR-8; 85.6% in the experiment with ACHN; 67.2% with SN12C; 85.9% with MCF7; 83% with HCT-15; 50.9% with SNB-19.

The values above are taken from PMC9037111, “Structure-based design, synthesis, and biological evaluation of novel piperine–resveratrol hybrids as antiproliferative agents targeting SIRT-2” (RSC Advances, 2021).
